From PubChem BioAssay (NCI)
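How tested: cells in 96-well plates exposed to compound for 48 hours at five concentrations. TGI denotes the concentration required for complete inhibition of growth.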

What was measured:
Test in all cases: DTP human tumour cell line panel, 48 h
[1] = test system: IGROV1 ovarian
[2] = test system: MCF7 breast
[3] = test system: OVCAR-5 ovarian
[4] = test system: UO-31 renal
[5] = test system: CCRF-CEM leukemia
[6] = test system: SF-539 CNS
[7] = test system: SW-620 colon
[8] = test system: MDA-N
[9] = test system: COLO 205 colon
[10] = test system: HCT-116 colon
[11] = test system: HCT-15 colon
[12] = test system: NCI-H23 lung
[13] = test system: NCI-H522 lung
[14] = test system: HS 578T breast
[15] = test system: SF-268 CNS
[16] = test system: HCC-2998 colon
[17] = test system: OVCAR-4 ovarian
[18] = test system: A498 renal
[19] = test system: HOP-62 NSCLC
[20] = test system: NCI/ADR-RES ovarian
[21] = test system: SF-295 CNS
[22] = test system: OVCAR-3 ovarian
[23] = test system: M14 melanoma
[24] = test system: EKVX NSCLC
[25] = test system: LOX IMVI melanoma
[26] = test system: SR leukemia
[27] = test system: NCI-H226 lung
[28] = test system: OVCAR-8 ovarian
[29] = test system: RXF 393 renal
[30] = test system: MOLT-4 leukemia
[31] = test system: U251 CNS
[32] = test system: SNB-75 CNS
[33] = test system: MDA-MB-435
[34] = test system: DU-145 prostate
[35] = test system: MDA-MB-231 breast
[36] = test system: NCI-H460 lung
[37] = test system: T-47D breast
[38] = test system: SNB-19 CNS
[39] = test system: BT-549 breast
[40] = test system: SK-MEL-28 melanoma
[41] = test system: A549 NSCLC
[42] = test system: SK-MEL-5 melanoma
[43] = test system: PC-3 prostate
[44] = test system: HT29 colon
[45] = test system: SN12C renal
[46] = test system: TK-10 renal
[47] = test system: UACC-62 melanoma
[48] = test system: CAKI-1 renal
[49] = test system: MALME-3M melanoma
[50] = test system: K-562 leukemia
[51] = test system: 786-0 renal
[52] = test system: ACHN renal
[53] = test system: RPMI-8226 leukemia
[54] = test system: UACC-257 melanoma
[55] = test system: HL-60(TB) leukemia
[56] = test system: SK-MEL-2 melanoma
[57] = test system: SK-OV-3 ovarian
[58] = test system: HOP-92 NSCLC
[59] = test system: KM12 colon

SMILES: C=C1C(=O)O[C@@H]2C[C@@H]3[C@]4(CC[C@]5(C)[C@@H]([C@H](C)CC/C=C(\C)C=O)CC[C@@]35C)C[C@]4(CCC(=O)OC)[C@H]12
- TGI [1]: 4.63 µM
- TGI [2]: 2.9 µM
- TGI [3]: 3.96 µM
- TGI [4]: 3.53 µM
- TGI [5]: 0.617 µM
- TGI [6]: 4.22 µM
- TGI [7]: 4.11 µM
- TGI [8]: 3.42 µM
- TGI [9]: 5.64 µM
- TGI [10]: 2.03 µM
- TGI [11]: 3.71 µM
- TGI [12]: 3.77 µM
- TGI [13]: 8.91 µM
- TGI [14]: 6.77 µM
- TGI [15]: 2.73 µM
- TGI [16]: 4.1 µM
- TGI [17]: 3.62 µM
- TGI [18]: 5.33 µM
- TGI [19]: 4.21 µM
- TGI [20]: 7.99 µM
- TGI [21]: 4.54 µM
- TGI [22]: 3.02 µM
- TGI [23]: 2.91 µM
- TGI [24]: 7.55 µM
- TGI [25]: 2.61 µM
- TGI [26]: 2.32 µM
- TGI [27]: 10.8 µM
- TGI [28]: 2.15 µM
- TGI [29]: 3.56 µM
- TGI [30]: 2.94 µM
- TGI [31]: 2.86 µM
- TGI [32]: 4.51 µM
- TGI [33]: 3.16 µM
- TGI [34]: 3.31 µM
- TGI [35]: 3.66 µM
- TGI [36]: 9.13 µM
- TGI [37]: 4.93 µM
- TGI [38]: 3.9 µM
- TGI [39]: 5.01 µM
- TGI [40]: 3.99 µM
- TGI [41]: 13.9 µM
- TGI [42]: 2.3 µM
- TGI [43]: 4.48 µM
- TGI [44]: 11 µM
- TGI [45]: 3.85 µM
- TGI [46]: 3.99 µM
- TGI [47]: 3.06 µM
- TGI [48]: 6.7 µM
- TGI [49]: 3.05 µM
- TGI [50]: 2.67 µM
- TGI [51]: 3.23 µM
- TGI [52]: 3.89 µM
- TGI [53]: 1.22 µM
- TGI [54]: 1.13 µM
- TGI [55]: 1.29 µM
- TGI [56]: 3.43 µM
- TGI [57]: 6.72 µM
- TGI [58]: 3.88 µM
- TGI [59]: 3.89 µM

SMILES: COc1ccc2nc3n[nH]c(N)c3nc2c1
- TGI [1]: 17.1 µM
- TGI [2]: > 26.7 µM
- TGI [3]: > 87.2 µM
- TGI [4]: 55 µM
- TGI [5]: > 25.7 µM
- TGI [6]: 12 µM
- TGI [7]: 45.9 µM
- TGI [8]: 44.4 µM
- TGI [9]: 18.9 µM
- TGI [10]: > 32.8 µM
- TGI [11]: > 93.7 µM
- TGI [12]: 15.5 µM
- TGI [13]: 27.3 µM
- TGI [14]: 23.8 µM
- TGI [15]: 23.8 µM
- TGI [16]: > 74 µM
- TGI [17]: > 87.3 µM
- TGI [18]: > 62.3 µM
- TGI [19]: > 76.5 µM
- TGI [20]: 33.8 µM
- TGI [21]: > 76.7 µM
- TGI [22]: 38.3 µM
- TGI [23]: 27.6 µM
- TGI [24]: 45.6 µM
- TGI [25]: 20.4 µM
- TGI [26]: > 78 µM
- TGI [27]: 24.8 µM
- TGI [28]: 32.5 µM
- TGI [29]: 5.91 µM
- TGI [30]: > 100 µM
- TGI [31]: > 56.3 µM
- TGI [32]: 21.7 µM
- TGI [33]: 72.3 µM
- TGI [34]: > 49.2 µM
- TGI [35]: 64.4 µM
- TGI [36]: > 84.2 µM
- TGI [37]: 46.5 µM
- TGI [38]: > 100 µM
- TGI [39]: 62.9 µM
- TGI [40]: 42.2 µM
- TGI [41]: > 26.5 µM
- TGI [42]: > 29.1 µM
- TGI [43]: 36.9 µM
- TGI [44]: 36.9 µM
- TGI [45]: > 69.1 µM
- TGI [46]: > 75.7 µM
- TGI [47]: 19.8 µM
- TGI [48]: > 90.6 µM
- TGI [49]: 69.6 µM
- TGI [50]: > 100 µM
- TGI [51]: > 65.9 µM
- TGI [52]: > 23.7 µM
- TGI [53]: 19 µM
- TGI [54]: 90.4 µM
- TGI [55]: 4.48 µM
- TGI [56]: 17.5 µM
- TGI [57]: > 64.9 µM
- TGI [58]: 48.6 µM
- TGI [59]: > 93 µM

SMILES: O=C(NC(N1CCN(c2cc3c(cc2F)c(=O)c(C(=O)O)cn3C2CC2)CC1)(C(F)(F)F)C(F)(F)F)c1ccccc1
- TGI [1]: > 100 µM
- TGI [2]: > 100 µM
- TGI [3]: 65.4 µM
- TGI [4]: 81.5 µM
- TGI [5]: 72.3 µM
- TGI [6]: 80.8 µM
- TGI [7]: > 100 µM
- TGI [8]: > 100 µM
- TGI [9]: 34.8 µM
- TGI [10]: > 100 µM
- TGI [11]: 61.6 µM
- TGI [12]: 89.2 µM
- TGI [13]: 38.7 µM
- TGI [14]: > 100 µM
- TGI [15]: > 100 µM
- TGI [16]: 66 µM
- TGI [17]: > 100 µM
- TGI [18]: 94.4 µM
- TGI [19]: > 100 µM
- TGI [20]: > 100 µM
- TGI [21]: > 100 µM
- TGI [22]: 96.1 µM
- TGI [23]: > 100 µM
- TGI [24]: > 100 µM
- TGI [25]: > 100 µM
- TGI [26]: 87.2 µM
- TGI [27]: > 100 µM
- TGI [28]: > 100 µM
- TGI [29]: > 100 µM
- TGI [30]: 62 µM
- TGI [31]: > 100 µM
- TGI [32]: > 100 µM
- TGI [33]: > 100 µM
- TGI [34]: > 100 µM
- TGI [35]: 70.6 µM
- TGI [36]: > 100 µM
- TGI [37]: > 100 µM
- TGI [38]: > 100 µM
- TGI [39]: > 100 µM
- TGI [40]: > 100 µM
- TGI [41]: > 100 µM
- TGI [42]: 62.9 µM
- TGI [43]: > 100 µM
- TGI [44]: > 100 µM
- TGI [45]: > 100 µM
- TGI [46]: 87.4 µM
- TGI [47]: > 100 µM
- TGI [48]: 85.4 µM
- TGI [49]: 77.5 µM
- TGI [50]: > 100 µM
- TGI [51]: > 100 µM
- TGI [52]: > 100 µM
- TGI [53]: 69.9 µM
- TGI [54]: 80.8 µM
- TGI [55]: 53.8 µM
- TGI [56]: > 100 µM
- TGI [57]: 94.1 µM
- TGI [58]: 93.3 µM
- TGI [59]: 84.4 µM

SMILES: CCOC(=O)Oc1ccc(C(CNC(C)C)OC(=O)OCC)cc1OC(=O)OCC (stereo unspecified)
- TGI [1]: > 100 µM
- TGI [2]: > 100 µM
- TGI [3]: > 100 µM
- TGI [4]: > 100 µM
- TGI [5]: > 100 µM
- TGI [6]: > 100 µM
- TGI [7]: > 100 µM
- TGI [8]: > 100 µM
- TGI [9]: > 100 µM
- TGI [10]: > 100 µM
- TGI [11]: > 100 µM
- TGI [12]: > 100 µM
- TGI [13]: > 100 µM
- TGI [14]: > 100 µM
- TGI [15]: > 100 µM
- TGI [16]: > 100 µM
- TGI [17]: > 100 µM
- TGI [18]: > 100 µM
- TGI [19]: > 100 µM
- TGI [20]: > 100 µM
- TGI [21]: > 100 µM
- TGI [22]: > 100 µM
- TGI [23]: > 100 µM
- TGI [24]: > 100 µM
- TGI [25]: > 100 µM
- TGI [26]: > 100 µM
- TGI [27]: > 100 µM
- TGI [28]: > 100 µM
- TGI [29]: > 100 µM
- TGI [30]: > 100 µM
- TGI [31]: > 100 µM
- TGI [32]: > 100 µM
- TGI [33]: > 100 µM
- TGI [34]: > 100 µM
- TGI [35]: > 100 µM
- TGI [36]: > 100 µM
- TGI [37]: > 100 µM
- TGI [38]: > 100 µM
- TGI [39]: > 100 µM
- TGI [40]: > 100 µM
- TGI [41]: > 100 µM
- TGI [42]: > 100 µM
- TGI [43]: > 100 µM
- TGI [44]: > 100 µM
- TGI [45]: > 100 µM
- TGI [46]: > 100 µM
- TGI [47]: > 100 µM
- TGI [48]: > 100 µM
- TGI [49]: > 100 µM
- TGI [50]: > 100 µM
- TGI [51]: > 100 µM
- TGI [52]: > 100 µM
- TGI [53]: > 100 µM
- TGI [54]: > 100 µM
- TGI [55]: 98.5 µM
- TGI [56]: > 100 µM
- TGI [57]: > 100 µM
- TGI [58]: > 100 µM
- TGI [59]: > 100 µM
